Experimental findings from ChEMBL document CHEMBL5321279 (J Med Chem, 2023) are described below.

Series [1] is described as follows: Stability of compound in cynomolgus monkey plasma assessed as half life measured upto 4 hrs by LC-MS/MS analysis. It counts as ADME, cell-free, Macaca fascicularis.
Series [2] can be described thus: Thermodynamic aqueous solubility at pH 7 measured at 24 hrs by UPLC analysis. Type of series: physicochemical. To be noted: aqueous solution, read-out: Therm_solubility.
Series [3] can be described thus: Thermodynamic aqueous solubility at pH 2 measured at 72 hrs by UPLC analysis. Type of series: physicochemical. To be noted: aqueous solution, read-out: Therm_solubility.
Series [4] can be described thus: Stability of compound in human liver S9 fraction assessed as half life at pH 7.4 measured upto 90 mins by LC-MS/MS analysis. Type of series: ADME, subcellular.
A short description of series [5]: Stability of compound in human gastrointestinal S9 fraction assessed as half life at pH 7.4 measured upto 120 mins by LC-MS/MS analysis. It counts as ADME, subcellular, Gastrointestinal tract.
Series [6] in a line: Stability of compound in human plasma assessed as half life measured upto 4 hrs by LC-MS/MS analysis. Type of series: ADME, cell-free.
Series [7] is described as follows: Apparent permeability of the compound from apical to basolateral side in human Caco-2 cells incubated for 2 hrs by LC-MS/MS analysis. Type of series: ADME, cell-based. The note with it: for Papp A→B at 2 h: Caco-2. (Caco-2 cells form a polarised layer with tight junctions and transporters.)
The nature of series [8]: Stability of compound in rat plasma assessed as half life measured upto 4 hrs by LC-MS/MS analysis. It counts as ADME, cell-free.
The nature of series [9]: Stability of compound in cynomolgus monkey liver S9 fraction assessed as half life at pH 7.4 measured upto 90 mins by LC-MS/MS analysis. Type of series: ADME, subcellular, Macaca fascicularis.
A short description of series [10]: Stability of compound in dog liver S9 fraction assessed as half life at pH 7.4 measured upto 90 mins by LC-MS/MS analysis. Type of series: ADME, subcellular, Canis lupus familiaris.
A short description of series [11]: Efflux ratio of permeability in human Caco-2 cells from basolateral to apical side over apical to basolateral side in human Caco-2 cells incubated for 2 hrs by LC-MS/MS analysis. To be noted: caco-2, 2 h. It counts as ADME, cell-based.
Series [12] in a line: Stability of compound in cynomolgus monkey gastrointestinal S9 fraction assessed as half life at pH 7.4 measured upto 120 mins by LC-MS/MS analysis. Type of series: ADME, subcellular, Macaca fascicularis, Gastrointestinal tract.
Series [13] in a line: Aqueous stability of the compound assessed as compound remaining at pH 2 measured at 24 hrs by UPLC analysis. It counts as physicochemical. The note with it: aqueous solution, read-out: Stability.
Series [14] is described as follows: Aqueous stability of the compound assessed as compound remaining at pH 7 measured at 24 hrs by UPLC analysis. It counts as physicochemical. To be noted: aqueous solution, read-out: Stability.
Series [15] is described as follows: Stability of compound in rat gastrointestinal S9 fraction assessed as half life at pH 7.4 measured upto 120 mins by LC-MS/MS analysis. It counts as ADME, subcellular, Gastrointestinal tract.
A short description of series [16]: Stability of compound in rat liver S9 fraction assessed as half life at pH 7.4 measured upto 90 mins by LC-MS/MS analysis. It counts as ADME, subcellular.
Series [17] in a line: Stability of compound in dog gastrointestinal S9 fraction assessed as half life at pH 7.4 measured upto 120 mins by LC-MS/MS analysis. It counts as ADME, subcellular, Canis lupus familiaris, Gastrointestinal tract.
The nature of series [18]: Lipophilicity, logD of compound. It counts as physicochemical. The note with it: octanol/water.
Series [19] can be described thus: Stability of compound in dog plasma assessed as half life measured upto 4 hrs by LC-MS/MS analysis. It counts as ADME, cell-free, Canis lupus familiaris.
For another series, the system named is Huh-7. Nature of the series: Cytotoxicity against human Huh-7 cells assessed as reduction in cell growth measured after 5 days by CellTiter-Glo assay. It counts as toxicity, cell-based. The note with it: huh-7, 120 h, time 5 day.
The test system of the next series is HepG2. Nature of the series: Cytotoxicity against human HepG2 cells assessed as reduction in cell growth measured after 5 days by CellTiter-Glo assay. The note with it: hepg2, 120 h, time 5 day. Type of series: toxicity, cell-based. On the technique in general: Cellular ATP, detected with luciferase, serves as a proxy for viable cell number.
For a further series, the system named is PC-3. Nature of the series: Cytotoxicity against human PC-3 cells assessed as reduction in cell growth measured after 5 days by CellTiter-Glo assay. It counts as toxicity, cell-based. The note with it: pc-3, 120 h, time 5 day.
The subject of series [20] is PBMC. The series can be described thus: Cytotoxicity against stimulated human PBMC cells assessed as reduction in cell growth measured after 5 days by CellTiter-Glo assay. It counts as toxicity, cell-based. The note with it: pbmc, 120 h, time 5 day.
The next series concerns MRC5. Nature of the series: Cytotoxicity against human MRC5 cells assessed as reduction in cell growth measured after 5 days by CellTiter-Glo assay. It counts as toxicity, cell-based. To be noted: mrc5, 120 h, time 5 day.
The subject of another series is Hepatocyte. The series can be described thus: Cytotoxicity against human primary hepatocytes assessed as reduction in cell growth measured after 5 days by CellTiter-Glo assay. It counts as toxicity, cell-based. The note with it: hepatocytes, 120 h, time 5 day.
A short description of series [21]: Cytotoxicity against human NHBE-T cells assessed as reduction in cell growth measured after 5 days by CellTiter-Glo assay. Type of series: toxicity, cell-based. The note with it: nhbe-t, 120 h, time 5 day.
Series [22] has as its system PBMC. The series can be described thus: Cytotoxicity against quiescent human PBMC cells assessed as reduction in cell growth measured after 5 days by CellTiter-Glo assay. It counts as toxicity, cell-based. The note with it: pbmc, 120 h, time 5 day.
Another series deals with MT4. Nature of the series: Cytotoxicity against human MT4 cells assessed as reduction in cell growth measured after 5 days by CellTiter-Glo assay. Type of series: toxicity, cell-based. To be noted: mt4, 120 h, time 5 day.
The nature of series [23]: Prodrug conversion in SARS-CoV-2 infected in mouse assessed as (2R,3R,4S,5R)-2-(4-aminopyrrolo[2,1-f][1,2,4]triazin-7-yl)-3,4-dihydroxy-5-(hydroxymethyl)tetrahydrofuran-2-carbonitrile mediated log10 reduction of genomic RNA in lung at 30 mg/kg, po BID measured after 4 days by RT-qPCR analysis. To be noted: in vivo, 96 h, time 4 day. It counts as ADME, organism-based. For orientation: Real-time PCR tracks product formation cycle by cycle.

Series [24] can be described thus: AUC(0 to 24 hrs) in SARS-CoV-2 infected mouse assessed as prodrug conversion (2R,3R,4S,5R)-2-(4-aminopyrrolo[2,1-f][1,2,4]triazin-7-yl)-3,4-dihydroxy-5-(hydroxymethyl)tetrahydrofuran-2-carbonitrile at 30 mg/kg, po BID measured after 4 days by LC-MS/MS analysis. Type of series: ADME, organism-based. Set-up: dose 30 mg/kg, time 4 day, route po. To be noted: in vivo, 96 h.

Series [25] is described as follows: Cmax in mouse infected with SARS-CoV-2 assessed as prodrug conversion by measuring (2R,3R,4S,5R)-2-(4-aminopyrrolo[2,1-f][1,2,4]triazin-7-yl)-3,4-dihydroxy-5-(hydroxymethyl)tetrahydrofuran-2-carbonitrile at 30 mg/kg, po BID measured after 4 days by LC-MS/MS analysis. It counts as ADME, organism-based. On the set-up: dose 30 mg/kg, time 4 day, route po. To be noted: in vivo, 96 h.

The nature of series [26]: AUC(0 to 24 hrs) in ferret infected with SARS-CoV-2 assessed as prodrug conversion by measuring (2R,3R,4S,5R)-2-(4-aminopyrrolo[2,1-f][1,2,4]triazin-7-yl)-3,4-dihydroxy-5-(hydroxymethyl)tetrahydrofuran-2-carbonitrile at 10 mg/kg, po BID measured after 4 days by LC-MS/MS analysis. Set-up: dose 10 mg/kg, time 4 day, route po. To be noted: in vivo, 96 h. It counts as ADME, organism-based, Mustela putorius furo.

A short description of series [27]: Prodrug conversion in SARS-CoV-2 infected in ferret assessed as (2R,3R,4S,5R)-2-(4-aminopyrrolo[2,1-f][1,2,4]triazin-7-yl)-3,4-dihydroxy-5-(hydroxymethyl)tetrahydrofuran-2-carbonitrile mediated log10 reduction of genomic RNA at 10 mg/kg, po BID measured after 4 days by RT-qPCR analysis. It counts as ADME, organism-based, Mustela putorius furo. To be noted: in vivo, 96 h, time 4 day.

Series [28] is described as follows: Cmax in ferret infected with SARS-CoV-2 assessed as prodrug conversion by measuring (2R,3R,4S,5R)-2-(4-aminopyrrolo[2,1-f][1,2,4]triazin-7-yl)-3,4-dihydroxy-5-(hydroxymethyl)tetrahydrofuran-2-carbonitrile at 10 mg/kg, po BID measured after 4 days by LC-MS/MS analysis. On the set-up: time 4 day, dose 10 mg/kg, route po. To be noted: in vivo, 96 h. It counts as ADME, organism-based, Mustela putorius furo.

Series [29] can be described thus: Lipophilicity, logP of compound. Type of series: physicochemical. The note with it: octanol/water.

Converted amounts (≈) assume the structure as drawn. Where only a bound is given, the exact number is not on record here.

Take `CC(=O)OC[C@H]1O[C@@](C#N)(c2ccc3c(N)ncnn23)[C@H](OC(C)=O)[C@@H]1OC(C)=O`: the half-life – broadly, the time in which the quantity being followed falls by half – is 9.2 min in series [1]; under 2 min in series [5]; 4.7 min in [6]; under 2 min in series [8]; under 2 min in series [12]; over 2 min in series [15]. Moreover, the values for the half-life in [17] and in series [19] were 16 min and 111 min, respectively. Besides, the solubility thermodynamic at 24 h in [2] came to 1400 µg/mL (≈ 3.35 mM). Besides, the solubility thermodynamic at 72 h in series [3] was at least 40000 µg/mL. The half-life at […] in series [4], in series [9], in [10] and in series [16] was under 2 min throughout. In addition, in [7], the apical-to-basolateral permeability (Papp A→B) (as a rule, how fast a substance crosses the layer from the apical side) at 2 h was determined as 4 ×10⁻⁶ cm/s. For the same compound, the Ratio in series [11] was 3. Moreover, the values for the remaining at 24 h in series [13] and in series [14] were 82% and 79%, respectively. Also, the logD (usually lipophilicity at a set pH, counting ionised and neutral species) in series [18] amounted to 1.5.
In the case of `CC(=O)OC[C@H]1O[C@@](C#N)(c2ccc3c(N)ncnn23)[C@H](O)[C@@H]1O`, the half-life in [1] was 146 min; in series [5], 28 min; in series [6] it was 70 min; in [8] it was 3 min; in [12], 38 min; in [15], over 2 min. Moreover, the values for the half-life in [17] and in series [19] were 226 min and 564 min, respectively. Besides, the solubility thermodynamic at 24 h in series [2] is 1000 µg/mL (≈ 3 mM). The half-life at […] was found to be 19 min in [4], 5.3 min in [9], 25 min in series [10] and 10 min in series [16]. Besides, in series [7], the Papp A→B at 2 h was 1.4 ×10⁻⁶ cm/s. For the same compound, the Ratio in [11] is 0.5. Also, the remaining at 24 h in series [13] worked out at 89%; in [14], 96%. Moreover, in series [18], the logD was under 0.3.
With `COc1ccc(C[C@H](N)C(=O)N[C@H]2[C@@H](O)[C@H](n3cnc4c(N(C)C)ncnc43)O[C@@H]2CO)cc1` [PUROMYCIN], the CC50 – broadly, the concentration at which the toxic effect on the cells reaches its halfway point – in the series on Huh-7 is 430 nM; with HepG2, 780 nM; in the series with PC-3 it was 470 nM; with PBMC [20], 1100 nM; in the series with MRC5, 320 nM; in the series with Hepatocyte, 1100 nM. The 50% cytotoxic concentration (CC50) in [21] was found to be 600 nM; in the series with PBMC [22] it was 5.05 µM; in the series on MT4, 120 nM.
As to `CC(C)C(=O)OC[C@H]1O[C@@](C#N)(c2ccc3c(N)ncnn23)[C@H](OC(=O)C(C)C)[C@@H]1OC(=O)C(C)C`, the half-life in series [1] is 7.2 min; in series [5], under 2 min; in series [6], 5.5 min; in [8], under 2 min; in series [12] it was under 2 min; in [15], over 2 min. The half-life in series [17] was under 2 min; in [19] it was 182 min. Moreover, in series [2], the solubility thermodynamic at 24 h is under 10 µg/mL. Further, in series [3], the solubility thermodynamic at 72 h was 600 µg/mL (≈ 1.2 mM). Also, the half-life at […] in [4] is under 2 min; in [9], under 2 min; in [10], under 2 min; in [16], 2.9 min. The results for the “log(activity)” value in series [23] and in series [27] were -3.29 and -1.98, respectively. In series [7] (caco-2, 2 h), the Papp is listed as 22 10^-6 cm/s. Further, the area under the curve (AUC) (as a rule, the area under the concentration-time curve, a measure of exposure) was 95 µM·h in series [24] and 54 µM·h in [26]. The Ratio in series [11] is under 1. The remaining at 24 h in series [13] was at least 96%; in series [14], at least 98%. Moreover, the Cmax (commonly the maximum level reached in the sampled fluid or tissue) in series [25] amounted to 13 µM; in series [28], 5 µM. Moreover, in series [18], the pH-dependent lipophilicity (logD) is listed as 3.5.
As for `[N-]=[N+]=N[C@]1(CO)O[C@@H](n2ccc(N)nc2=O)[C@H](O)[C@@H]1O` [4'-AZIDOCYTIDINE], in series [29], the logP – broadly, a log measure of how a compound divides between an organic and an aqueous phase – was over 2.
